Test results published in patent US20240024308A1, “TLR7/8 ANTAGONISTS FOR THE TREATMENT OF CORONAVIRUS INFECTIONS” (Merck Healthcare KGaA, priority 2020, published 2024).

Tests used:
[1] = target: T1, TLR7 (Homo sapiens, UniProt Q9NYK1); assay: Whole blood assay, stimulation with TLR7 selective agonist; type: cell-based; details: for IFNα and IL-6 production: challenged with the TLR-7 agonist
T1 construct: Blood was drawn from healthy donors into Vacutainer tubes with EDTA; endogenous in cells; host or cells: human whole blood (healthy donors)
T1 sequence (Q9NYK1 27-1049): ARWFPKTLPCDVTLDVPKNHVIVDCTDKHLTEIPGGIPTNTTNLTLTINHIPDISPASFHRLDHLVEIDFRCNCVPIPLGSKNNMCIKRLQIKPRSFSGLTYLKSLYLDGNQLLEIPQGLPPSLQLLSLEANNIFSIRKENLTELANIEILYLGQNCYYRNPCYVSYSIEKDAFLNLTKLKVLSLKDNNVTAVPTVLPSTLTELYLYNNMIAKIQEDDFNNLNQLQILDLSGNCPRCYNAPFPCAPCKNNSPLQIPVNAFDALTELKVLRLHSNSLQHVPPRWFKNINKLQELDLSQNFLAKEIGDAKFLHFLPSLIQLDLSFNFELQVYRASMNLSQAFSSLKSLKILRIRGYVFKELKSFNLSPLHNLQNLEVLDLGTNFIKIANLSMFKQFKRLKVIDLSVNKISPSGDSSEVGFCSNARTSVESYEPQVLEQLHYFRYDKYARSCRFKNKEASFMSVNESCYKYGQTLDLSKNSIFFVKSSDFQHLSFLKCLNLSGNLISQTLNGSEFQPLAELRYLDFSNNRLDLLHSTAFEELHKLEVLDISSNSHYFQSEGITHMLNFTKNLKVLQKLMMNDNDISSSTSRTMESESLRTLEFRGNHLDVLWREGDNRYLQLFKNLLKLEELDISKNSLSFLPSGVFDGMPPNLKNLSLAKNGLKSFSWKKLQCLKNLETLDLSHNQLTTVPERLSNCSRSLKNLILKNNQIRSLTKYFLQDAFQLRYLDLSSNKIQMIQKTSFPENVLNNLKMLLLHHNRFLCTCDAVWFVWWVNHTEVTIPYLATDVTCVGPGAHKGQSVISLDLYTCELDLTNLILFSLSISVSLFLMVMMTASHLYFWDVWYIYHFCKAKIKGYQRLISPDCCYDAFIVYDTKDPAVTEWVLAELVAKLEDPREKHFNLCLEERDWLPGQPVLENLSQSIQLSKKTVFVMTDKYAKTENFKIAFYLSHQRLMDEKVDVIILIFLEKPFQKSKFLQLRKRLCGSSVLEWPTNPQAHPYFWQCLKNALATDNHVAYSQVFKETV
Protocol: (§1) Whole blood assay: Blood was drawn from healthy donors into Vacutainer tubes with EDTA (BD Biosciences) and assay was performed within 2 hr. Four parts blood were diluted with one part PBS and 150 μl/well was dispensed into 96-well plates. Compound dilutions were added in triplicate and plates were incubated at 37° C. 5% CO2 for 30 min. For TLR7/8 testing, R848 (resiquimod) was added to 1 μM, for TLR7, the TLR7 selective agonist shown below was added to 3 μM and for TLR8, the TLR8 selective agonist shown below was added to 0.5 μM. Plates were incubated overnight 37° C. 5% CO2 and cytokines were measured in the plasma by AlphaLISA.
(§2) IL-6, TNF-alpha and IFN-alpha were measured in plasma 16 h later.
The TLR 7 agonist used in the above experiment was: […]

[2] = target: T2, TLR8 (Homo sapiens, UniProt Q9NR97); assay: Whole blood assay, stimulation with TLR8 selective agonist; type: cell-based; details: for IFNα and IL-6 production: challenged with the TLR-8 agonist
T2 construct: Blood was drawn from healthy donors into Vacutainer tubes with EDTA; endogenous in cells; host or cells: human whole blood (healthy donors)
T2 sequence (Q9NR97 27-1041): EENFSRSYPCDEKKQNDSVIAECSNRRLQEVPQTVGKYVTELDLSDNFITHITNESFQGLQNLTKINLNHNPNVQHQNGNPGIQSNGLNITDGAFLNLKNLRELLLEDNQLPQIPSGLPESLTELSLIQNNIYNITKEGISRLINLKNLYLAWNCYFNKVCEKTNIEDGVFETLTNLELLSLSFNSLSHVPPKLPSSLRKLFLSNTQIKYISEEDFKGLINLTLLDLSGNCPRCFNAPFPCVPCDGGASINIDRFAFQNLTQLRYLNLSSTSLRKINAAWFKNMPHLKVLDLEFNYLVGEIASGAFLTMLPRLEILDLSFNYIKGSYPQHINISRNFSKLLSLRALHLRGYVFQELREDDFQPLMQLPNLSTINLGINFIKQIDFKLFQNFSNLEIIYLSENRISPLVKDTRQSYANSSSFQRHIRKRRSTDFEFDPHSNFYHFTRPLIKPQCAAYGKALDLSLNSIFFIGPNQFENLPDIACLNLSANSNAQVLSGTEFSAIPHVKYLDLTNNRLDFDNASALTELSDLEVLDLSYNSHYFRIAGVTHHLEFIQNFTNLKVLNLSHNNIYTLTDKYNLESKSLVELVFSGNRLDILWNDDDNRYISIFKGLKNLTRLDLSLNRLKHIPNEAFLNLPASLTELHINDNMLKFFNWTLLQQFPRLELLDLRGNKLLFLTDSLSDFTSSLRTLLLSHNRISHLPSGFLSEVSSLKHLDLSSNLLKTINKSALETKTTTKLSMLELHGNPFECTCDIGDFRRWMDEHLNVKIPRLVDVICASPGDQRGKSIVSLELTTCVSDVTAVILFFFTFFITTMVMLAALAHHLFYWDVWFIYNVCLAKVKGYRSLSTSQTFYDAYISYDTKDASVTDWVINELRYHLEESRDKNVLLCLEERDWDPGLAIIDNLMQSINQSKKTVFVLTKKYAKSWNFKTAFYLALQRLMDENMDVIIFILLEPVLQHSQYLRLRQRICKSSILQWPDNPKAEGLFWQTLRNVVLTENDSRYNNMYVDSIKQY
Protocol: as §1, §2

[3] = test system: TLR7/8; assay: Whole blood assay, stimulation with TLR7/8 agonist R848 (resiquimod); type: cell-based, human; details: challenged with TLR7/8 agonist R848
Protocol: as §1, §2

[4] = test system: TLR7 and TLR8; assay: Phase I healthy volunteer study, ex vivo-stimulated cytokine secretion; type: in vivo, human; details: exposure-dependent manner
[5] = test system: PBMCs; assay: PBMCs stimulated with GU-rich RNA oligonucleotides, cytokines by AlphaLISA; type: cell-based, human; details: RNA oligonucleotides 26 μg/ml, overnight; for concentration of IFN-alpha after stimulation: FIG. 7A; for concentration of IL-6 after stimulation: FIG. 7B; for concentration of TNF-alpha after stimulation: FIG. 7C
Protocol: Blood was drawn from healthy donors and PBMCs isolated using gradient centrifugation. PBMCs were dispensed into 96-well plates and M5049 dilutions were added in triplicate to selected wells. Plates were incubated at 37° C. and 5% CO2 for 30 minutes. Then, RNA oligonucleotides were added to the cells at a concentration of 26 μg/ml for stimulation. The treated PBMCs were incubated overnight at 37° C. and 5% CO2, and IFNa, TNFa and IL-6 in the supernatant were measured the next day by AlphaLISA.

[6] = test system: C57BL/6 mice; assay: C57BL/6 mice dosed i.v. with miR-122, plasma cytokines and lung gene signatures; type: in vivo; details: for lung IFN gene signature score: FIG. 9A; for plasma levels of IFNα: 0.1, 1, 10 mg/kg p.o., P<0.0074 for all concentrations, FIG. 8A; for plasma levels of IFNα / plasma levels of IL-6: 4 hours after miR-122; for plasma levels of IL-6: p.o., P=0.0237 at 1 mg/kg, P=0.0147 at 10 mg/kg, FIG. 8B
Protocol: Healthy female C57BL/6 mice were dosed with vehicle (0.1 M Na citrate pH 3.0) or increasing doses (0.1, 1, 10 mg/kg) of M5049 p.o. After 30 min, mice were dosed with a single i.v. injection of 2 mg/kg miR-122 (Sigma) complexed with Invivofectamine (Life Technologies). At 4 hours after miRNA dosing, mice were euthanized and blood was collected for cytokine analysis in plasma and lungs were collected for gene expression analysis. IFN-α and IL-6 were measured in the plasma samples by Alphalisa (Perkin Elmer). Lungs were homogenized using the OctoMacs and M tubes (Qiagen) in RLT buffer and RNA was extracted using the RNEasy mini kit (Qiagen). Gene expression analysis was performed using a custom NanoString panel. Gene signature scores were determined by calculating the Log 2 fold change versus vehicle alone and then using the median Log 2 fold change for all genes on the signature as the signature score for each mouse. Genes used for the IFN gene signature were: OAS1, OAS2, OAS3, OASL, BST2, CMPK2, GBP5, HERC6, IFI44, IFIT1, IFIT2, IFIT3, IFIH1, CXCL10, ISG15, MX1, MX2, STAT1, TNFSF10, USP18, RSAD2, and IRF7. Genes used for the NF-kB gene signature were: IL1RN, TNFAIP3, CSF1, IRF1, IL1B, IL6, NFKBIA, PTGS2, TAP1, and TNF. […] Administration of miR-122 lead to an increase of both, the IFN and NFkB gene signature scores indicating local lung inflammation.

[7] = test system: BXSB-Yaa mice; assay: BXSB-Yaa mouse lupus model
[8] = test system: TLR7/8; assay: Cytokine inhibition in mice challenged with TLR agonist

Structure (SMILES): N#Cc1ccc(N2C[C@H](N)C[C@H](C(F)(F)F)C2)c2cccnc12 (single isomer, unassigned) [Compound 3]
- IFNα and IL-6 production [1]: dose-dependently decreases
- production of IL-6 and TNF-alpha ([1]; samples stimulated with TLR 7 agonist, vs. hydroxychloroquine, FIG. 2A): significantly reduces the amount of the cytokines
- IFNα and IL-6 production [2]: dose-dependently decreases
- production of IL-6 and TNF-alpha ([2]; samples stimulated with TLR 8 agonist, vs. hydroxychloroquine, FIG. 2B): significantly reduces the amount of the cytokines
- IFNα and IL-6 production [3]: dose-dependently decreases
- secretion of ex vivo-stimulated cytokines including IL-6, TNFα, and IFNα [4]: suppressed
- concentration of IFN-alpha after stimulation [5]: significant reduction
- concentration of IFN-alpha after stimulation ([5]; listed as M5049): significantly suppresses
- concentration of IL-6 after stimulation [5]: significant reduction
- concentration of IL-6 after stimulation ([5]; listed as M5049): significantly suppresses
- concentration of TNF-alpha after stimulation [5]: significant reduction
- concentration of TNF-alpha after stimulation ([5]; listed as M5049): significantly suppresses
- lung IFN gene signature score ([6]; 10 mg/kg): complete reduction of IFN
- plasma levels of IFNα [6]: reduction
- plasma levels of IFNα ([6]; listed as M5049): significantly reduced
- lung IFN gene signature score ([6]; 1 and 10 mg/kg p.o., P<0.01): reduced both gene signature scores
- lung NFkB gene signature score ([6]; 1 and 10 mg/kg p.o., P<0.01, FIG. 9B): reduced both gene signature scores
- plasma levels of IL-6 ([6]; 10 mg/kg): reduction
- plasma levels of IL-6 ([6]; listed as M5049, 10 mg/kg): significantly reduced
- survival ([7]; BXSB-Yaa mice, once per day oral gavage, FIG. 3A): dose-dependent improvement in survival
- kidney disease (proteinuria) ([7]; BXSB-Yaa mice, oral gavage, FIG. 3B, 3C): reduction in kidney disease
- type I IFN response (blood IFN gene signature score) ([7]; BXSB-Yaa mice, only seen at high doses, FIG. 3D): inhibited
- disease in mouse lupus models ([7]; oral gavage): reduces disease
- IL-6 inhibition ([8]; low doses (0.1 mg/kg)): 100%
- IFNα inhibition ([8]; same concentration (0.1 mg/kg)): only partial

Structure (SMILES): COc1ncc(N2C[C@@H](C)C[C@@H](N)C2)c2cccnc12 [Compound 4, (3R,5S)-1-(8-Methoxy-[1,7]naphthyridin-5-yl)-5-methyl-piperidin-3-ylamine]
- IFNα and IL-6 production [1]: dose-dependently decreases
- IFNα and IL-6 production [2]: dose-dependently decreases
- IFNα and IL-6 production [3]: dose-dependently decreases
